“Also recorded” adds a separate entry of the source.
Key:
ICP0^− virus (n212) = assay type: cell-based, HSV-1; details: for effect of deprivation/refeeding on plating efficiency of ICP0- virus: 42 h in medium lacking the amino acid, normal medium 9 h, then n212 (FIG. 9); for effect of combined arginine and methionine deprivation on plating efficiency of ICP0- virus: three days in media containing all combinations of arginine, methionine and glutamine (FIG. 15)
Procedure: Like isoleucine deprivation, serum starvation is a method commonly used to synchronize cells to G1 phase of the cell cycle. We then replaced the media with normal growth medium, infected cells with wild type (KOS) or ICP0^− virus (n212), and analyzed cells for cellular DNA content at 3-h intervals (FIG. 7).
We infected the monolayers with an ICP0^− virus (n212) 9 h after the addition of normal medium (FIG. 8).
Media were replaced with normal growth medium, and after a 9-h incubation, monolayers were infected with ICP0^− (n212).
Cells were then infected with wild type or ICPO-virus to determine plating efficiency as described herein. […] In order to determine the role of isoleucine in these experiments, monolayers of cells were incubated for 42 hours in normal medium (Gln+ Ile+) or media lacking Ile, Gln, or both. Cells were then infected with wild type or ICP0^− virus to determine plating efficiency as described herein.
For these experiments, monolayers were incubated for 1-5 days in the absence of each of the 15 amino acids present in DMEM. Cells were then infected with wild type or ICPO-virus to determine plating efficiency as described herein.
Cells were then infected with wild type or ICPO-virus to determine plating efficiency as described herein.
A. Ile deprivation and serum starvation. DMEM was prepared by dissolving all components individually, except Ile and Gln, in water according to Invitrogen's formulation for DMEM (catalog #11965) with 3 substitutions: 200 mg/l calcium chloride (anhydrous) for 264.92 mg/l calcium chloride dihydrate, 48 mg/l L-cystine for 63 mg/l L-cystine dihydrochloride, and 72 mg/l L-tyrosine for 104 mg/l L-tyrosine disodium salt, dihydrate. Medium was sterilized by passage through a 0.22 μm filter. Ile and Gln were added as needed, not more than two days prior to use, at final concentrations of 0.802 or 2 mM, respectively.
Sixty-mm petri plates were seeded with 5×10^5 cells/plate and incubated 24 h at 37° C. For Ile deprivation experiments, medium was removed and monolayers were washed with warm Hanks' Balanced Salt Solution (HBSS) (37° C.) and overlaid with 4 ml warm Ile-free DMEM with 10% dialyzed FBS and 0 or 2 mM Gln. For serum starvation experiments, medium was removed and monolayers were washed with warm HBSS and overlaid with 4 ml warm serum-free DMEM with 0.802 mM Ile and 0 or 2 mM Gln. Monolayers in Ile- or serum-free media were incubated 42 h at 37° C. Media were replaced with warm DMEM containing 10% non-dialyzed FBS, 0.802 Ile, and 2 mM Gln. At 3-h intervals monolayers were infected with wild-type or ICP0-viruses to determine plating efficiency or analyzed for cellular DNA content by flow cytometry as described below.
Infections to determine plating efficiency. Vero cell monolayers in 35-, 60-, and 100-mm plates were infected with volumes of 200 μl, 400 μl, or 2 ml/plate, respectively, with 5, 10, 20, 40, or 100 PFU/plate. For all experiments except Ile deprivation and serum starvation, titers were determined on 24-h-old Vero cell monolayers that had been seeded at a concentration of 1.5×10^5 Vero cells/35-mm plate and incubated at 37° C. […] Plates were incubated at 37° C. and shaken every 15 minutes for 1 h. Two, 4, or 10 ml of DMEM containing 5% FBS and 0.5% methyl cellulose was added to 35-, 60-, and 100-mm plates, respectively, and monolayers were incubated 3-5 days at 37° C. to allow plaques to form. Medium was aspirated, cells were stained with crystal violet, and plaques were counted.

HSV = details: presence of L-lysine; cited from earlier work
ICP0 promoter-CAT [1] = test: Promoter-CAT expression in Vero cells after Ile deprivation/refeeding; assay type: cell-based, HSV-1; details: 0-6 hours post-release
Procedure: (§1) Vero cells and NB41A3 cells (mouse neuroblastoma cells) were treated by Ile deprivation/refeeding as in the previous experiment. The expression of viral gene promoters was then analyzed. Promoter-chloramphenicol acetyltransferase (CAT) expression from plasmids was measured following transfection of Vero cells treated by Ile-deprivation/refeeding. ICP0 and ICP4 promoter-CAT expression increased 6- or 4-fold, respectively, at early times (0-6 hours post-release) then decreased through 10 hours post-release. In cells from the mouse neuroblastoma cell line, NB41A3, ICP0, ICP4, and ICP22/47 promoter-CAT expression was increased 6-, 10-, or 5-fold, respectively.

ICP4 promoter-CAT [2] = test: as above; assay type: cell-based, HSV-1; details: 0-6 hours post-release
Procedure: as §1

ICP0 promoter-CAT [3] = test: Promoter-CAT expression in NB41A3 cells after Ile deprivation/refeeding; assay type: cell-based, HSV-1; details: NB41A3 mouse neuroblastoma cells
Procedure: as §1

ICP22/47 promoter-CAT = test: as above; assay type: cell-based, HSV-1; details: NB41A3 mouse neuroblastoma cells
Procedure: as §1

ICP4 promoter-CAT [4] = test: as above; assay type: cell-based, HSV-1; details: NB41A3 mouse neuroblastoma cells
Procedure: as §1

ICP0^− (7134) virus = details: Ile-free medium 42 hours, refeeding; first 8 h post-release; cited from earlier work
wt (KOS) virus = details: Ile-free medium 42 hours, refeeding; all time points; cited from earlier work
[5] = system: wild-type virus latent in mouse trigeminal ganglia; test: Mouse ocular/trigeminal ganglia (TG) cell culture model of reactivation from latency; assay type: cell-based, HSV-1
Procedure: (For details on the model, see, for example, Leib et al., J. Virol. 63:759-768 (1989), Halford et al., J. Virol. 74:5957-5967. (2000), and Halford et al., J. Virol. 75:3240-3249 (2001)). For this experiment, mice were infected with the wild-type virus and 30 days later the trigeminal ganglia (TG) were removed and incubated in 3 24-well plates in medium containing acyclovir (ACV). As indicated below the x-axis of FIG. 16, on day 7 the acyclovir was removed. On day 11, 1 24-well plate was treated by: washing once with HBSS and replacing with Gln-free medium supplemented with 10% dialyzed FBS (red); washing once with HBSS and replacing with Gln-containing medium supplemented with 10% dialyzed FBS (green); or 3-hour incubation at 43° C. followed by replacement of medium with fresh medium (blue). On day 13, Gln-free and Gln-containing medium with dialyzed FBS was replaced with medium containing Gln and 10% normal FBS. On day 16, the 2 plates not previously heat shocked were incubated for 3 hours at 43° C. followed by replacement of medium with fresh medium. Starting on day 10, 10% of the volume of each well was transferred daily to 1 well of a 96-well plate previously seeded with Vero cells. After incubation at 37° C. for 7 days, monolayers of Vero cells in the 96-well plates were examined by light microscopy for cytopathic effect. […]

HSV-1 (KOS strain) = test: Heat-stress reactivation of latent HSV in mice treated with glutamine (Example 5); assay type: in vivo, mouse; details: intraperitoneally or orally, heat stress 43° C. water 10 minutes
Procedure: The strain of HSV and the method of propagation can be as described in Example 1.
The mice can be infected by, e.g., the topical ocular route, and the establishment of a corneal infection can be documented by slit lamp examination and ocular swabs on day 3 after infection. Only animals which are successfully infected are retained for use in these experiments. Thirty days after infection, groups of latently infected and uninfected mice are treated with the glutamine composition. […] The mice are treated one day before heat stress and the day of the heat stress.
The glutamine composition can be given intraperitoneally in some groups of mice and orally in others. This treatment can be continued on the day the animals are heat stressed by immersion into 43° C. water for 10 minutes. Twenty-four hours after the hyperthermic stress, the eyes are swabbed to culture any infectious virus, and the mice killed to collect the trigeminal ganglia. Ocular swabs are incubated in culture medium which is then transferred to Vero cell monolayers in 96 well culture plates. Units of infectious herpesvirus are recorded as units of cytopathic effect over a period of seven days. […] The units of cytopathic effect are recorded over a seven day incubation period. […]

## NCCCC[C@H](N)C(=O)O [lysine, L-lysine]
ICP0^− virus (n212)
  effect of deprivation/refeeding on plating efficiency of ICP0- virus: slight enhancement; also recorded: slight increase
ICP0^− virus (n212); separate experiment
  enhancement of plating efficiency of ICP0- virus by deprivation/refeeding: 2-3 fold
HSV
  replication efficiency of HSV in cell culture: decrease the replication efficiency

## CC[C@H](C)[C@H](N)C(=O)O [isoleucine]
ICP0^− virus (n212)
  effect of deprivation/refeeding on plating efficiency of ICP0- virus: little or no effect
ICP0 promoter-CAT [1]
  increase of ICP0 promoter-CAT expression: 6 fold
ICP4 promoter-CAT [2]
  increase of ICP4 promoter-CAT expression: 4 fold
ICP0 promoter-CAT [3]
  increase of ICP0 promoter-CAT expression: 6 fold
ICP22/47 promoter-CAT
  increase of ICP22/47 promoter-CAT expression: 5 fold
ICP4 promoter-CAT [4]
  increase of ICP4 promoter-CAT expression: 10 fold
ICP0^− (7134) virus
  increase in number of plaques produced by the ICP0- virus: 6 fold
Wt (KOS) virus
  number of plaques produced by wild type virus: same number of plaques at all time points tested

## NC(=O)CC[C@H](N)C(=O)O [glutamine]
[5]; TG incubated in 0 mM Gln (FIG. 16)
  reactivation of wild-type virus from latency (wells positive for cytopathic effect): reactivated more rapidly and to the same extent as heat-shocked TG
[5]; TG incubated in the presence of 2 mM Gln (FIG. 16)
  reactivation of wild-type virus from latency (wells positive for cytopathic effect): significantly reduced reactivation
HSV-1 (KOS strain)
  units of infectious herpesvirus on the ocular surface vs untreated heat-stressed animals: statistically significantly lower units of infectious herpesvirus

## CSCC[C@H](N)C(=O)O [methionine]
ICP0^− virus (n212)
  effect of combined arginine and methionine deprivation on plating efficiency of ICP0- virus: synergistic effect

## N=C(N)NCCC[C@H](N)C(=O)O [arginine]
ICP0^− virus (n212)
  effect of combined arginine and methionine deprivation on plating efficiency of ICP0- virus: synergistic effect

Source: US20090176743A1 (priority 2005, published 2009)
